Experimental data from ChEMBL document CHEMBL1159300, “Salmahyrtisol A, a novel cytotoxic sesterterpene from the Red Sea sponge Hyrtios erecta” (J Nat Prod, 2002).

Columns and labels:
Assay type in all cases: functional, cell-based
A549 = assay: Cytotoxicity against human A549 cells
HT-29 = assay: Cytotoxicity against human HT-29 cells
P388 = assay: Cytotoxicity against mouse P388 cells

Measured: IC50

CC(=O)OC[C@]1(C)CCC[C@]2(C)[C@H]3C[C@@H](O)[C@]4(C)C5=C(CC[C@H]4[C@]3(C)CC[C@@H]12)COC5=O
≥ 1 µg/mL: all assays above

CC(=O)O[C@H]1CC[C@]2(C)[C@H]3C[C@@H](O)[C@]4(C)C5=C(CC[C@H]4[C@]3(C)CC[C@H]2C1(C)C)COC5=O
≥ 1 µg/mL: all assays above

CC(=O)O[C@@H]1c2occc2[C@@H](O)C[C@H]2[C@]3(C)CC[C@H]4C(C)(C)CCC[C@]4(C)[C@H]3C[C@@]21C [SALMAHYRTISOL A]
≥ 1 µg/mL: all assays above

CC1(C)CCC[C@]2(C)[C@H]3C[C@@H](O)[C@]4(C)c5cocc5C(=O)C[C@H]4[C@]3(C)CC[C@@H]12 [SALMAHYRTISOL B]
≥ 1 µg/mL: all assays above
